Laboratory results reported in patent US20210087206A1, “MACROCYCLIC KINASE INHIBITORS AND THEIR USE” (TURNING POINT THERAPEUTICS, INC., priority 2017, published 2021).
pIC50: −log10 of the molar value.

Legend:
Test in all cases: Cell proliferation assay (CellTiter-Glo)
Format in all cases: cell-based
[1] = system: KG-1 cell (OP2-FGFR1); conditions: Homo sapiens, anti-cell proliferation, 72 hours
Procedure: (§1) Cell Lines and Cell Culture:
(§2) Colorectal cell line KM 12 (harboring endogenous TPM3-TRKA fusion gene) was obtained from NCI. Acute myelogenous cell line KG-1 (harboring endogenous OP2-FGFR1 fusion gene) were purchased from ATCC.
(§3) Cell Proliferation Assays:
(§4) Two thousand cells per well were seeded in 384 well white plate for 24 hrs, and then treated with compounds for 72 hours (37° C., 5% CO2). Cell proliferation was measured using CellTiter-Glo luciferase-based ATP detection assay (Promega) following the manufactures's protocol. IC50 determinations were performed using GraphPad Prism software (GraphPad, Inc., San Diego, Calif.).

[2] = system: KM12 (TPM3-TRKA); conditions: Homo sapiens, anti-cell proliferation, 72 hours
Procedure: as §1, §2, §3, §4

[3] = target: T1, BaF3 EML4-ALK (Homo sapiens, UniProt Q9UM73); conditions: anti-cell proliferation, 72 hours
T1 construct: The EML4-ALK gene (variant 1) was synthesized at GenScript and cloned into pCDH-CMV-MCS-EF1-Puro plasmid (System Biosciences, Inc); fused on or other part: EML4 N-terminal part (variant 1: exons 1-13, with the coiled-coil that oligomerises the fusion) fused to the intracellular part of ALK, which contains the kinase domain; Q9HC35 (Echinoderm microtubule-associated protein-like 4)
T1 sequence (Q9UM73 whole entry, stated change not applied, the tested form may be a part): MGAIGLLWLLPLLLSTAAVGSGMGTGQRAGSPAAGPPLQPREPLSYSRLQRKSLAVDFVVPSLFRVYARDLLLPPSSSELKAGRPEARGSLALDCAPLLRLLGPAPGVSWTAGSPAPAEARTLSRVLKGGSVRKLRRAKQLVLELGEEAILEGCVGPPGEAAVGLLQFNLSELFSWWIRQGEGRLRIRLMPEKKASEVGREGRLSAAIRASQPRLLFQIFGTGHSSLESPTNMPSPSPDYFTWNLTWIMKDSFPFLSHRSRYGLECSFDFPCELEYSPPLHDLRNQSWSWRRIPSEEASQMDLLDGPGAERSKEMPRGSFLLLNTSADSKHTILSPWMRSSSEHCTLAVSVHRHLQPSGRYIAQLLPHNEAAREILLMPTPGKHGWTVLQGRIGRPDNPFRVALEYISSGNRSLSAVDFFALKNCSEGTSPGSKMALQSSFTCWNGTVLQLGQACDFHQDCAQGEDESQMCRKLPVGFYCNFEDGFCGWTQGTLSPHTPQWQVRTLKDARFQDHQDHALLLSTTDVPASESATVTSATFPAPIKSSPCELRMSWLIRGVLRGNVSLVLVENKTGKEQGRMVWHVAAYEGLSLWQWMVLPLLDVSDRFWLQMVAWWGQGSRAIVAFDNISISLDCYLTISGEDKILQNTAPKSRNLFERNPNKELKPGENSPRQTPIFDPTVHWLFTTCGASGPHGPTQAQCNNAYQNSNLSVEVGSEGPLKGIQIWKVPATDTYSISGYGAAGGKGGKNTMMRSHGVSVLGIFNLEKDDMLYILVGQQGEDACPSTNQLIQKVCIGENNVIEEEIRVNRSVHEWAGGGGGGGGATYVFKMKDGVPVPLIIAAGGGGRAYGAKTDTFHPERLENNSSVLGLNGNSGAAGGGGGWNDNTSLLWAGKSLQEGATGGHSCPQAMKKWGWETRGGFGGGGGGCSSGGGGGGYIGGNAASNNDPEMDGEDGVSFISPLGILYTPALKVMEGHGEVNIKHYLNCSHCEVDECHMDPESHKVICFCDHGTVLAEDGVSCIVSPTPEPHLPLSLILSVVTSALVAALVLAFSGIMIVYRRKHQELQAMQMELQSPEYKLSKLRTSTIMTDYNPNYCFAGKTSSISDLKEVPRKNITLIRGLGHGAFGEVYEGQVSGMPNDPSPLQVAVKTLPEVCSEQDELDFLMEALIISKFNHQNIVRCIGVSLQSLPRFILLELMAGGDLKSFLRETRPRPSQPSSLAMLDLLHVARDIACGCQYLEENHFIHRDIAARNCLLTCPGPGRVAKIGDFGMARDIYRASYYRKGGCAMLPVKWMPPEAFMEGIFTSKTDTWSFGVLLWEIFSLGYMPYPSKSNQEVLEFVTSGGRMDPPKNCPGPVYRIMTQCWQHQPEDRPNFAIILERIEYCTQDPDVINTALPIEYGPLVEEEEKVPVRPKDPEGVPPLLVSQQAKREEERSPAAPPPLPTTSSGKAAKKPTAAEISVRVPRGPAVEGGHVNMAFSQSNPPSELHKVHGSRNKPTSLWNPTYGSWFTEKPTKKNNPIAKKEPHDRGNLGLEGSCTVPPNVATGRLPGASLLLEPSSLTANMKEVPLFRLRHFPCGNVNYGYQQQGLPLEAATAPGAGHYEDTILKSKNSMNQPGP
Procedure: Cloning and Ba/F3 or NIH3T3 Stable Cell Line Creation
The EML4-ALK gene (variant 1) was synthesized at GenScript and cloned into pCDH-CMV-MCS-EF1-Puro plasmid (System Biosciences, Inc). Ba/F3-EML4-ALK wild type were generated by transducing Ba/F3 cells with lentivirus containing EML4-ALK wide type. Stable cell lines were selected by puromycin treatment, followed by IL-3 withdrawal. Briefly, 5×10^6 Ba/F3 cells were transduced with lentivirus supernatant in the presence of 8 μg/mL protamine sulfate. The transduced cells were subsequently selected with 1 μg/mL puromycin in the presence of IL3-containing medium RPMI1640, plus 10% FBS. After 10-12 days of selection, the surviving cells were further selected for IL3 independent growth.
as §3, §4

| pIC50 [3] | Structure (SMILES) | pIC50 [1] | pIC50 [2] |
| --- | --- | --- | --- |
| 7.32 | C[C@H]1CNC(=O)c2cnn3cc4c(nc23)N(Cc2cc(F)cnc2OC1)[C@H](C)CO4 [Compound 35, (7S,16R)-12-fluoro-7,16-dimethyl-5,6,7,8,16,17-hexahydro-4H,14H-1,19-(metheno)[1,4]oxazino[4,3-e]pyrazolo[3,4-h]pyrido[2,3-b] [1,5,7,11]oxatriazacyclotetra-decin-4-one] | 7.47 | > 9.70 |
| > 9.70 | C[C@@H]1COc2cn3ncc4c3nc2N1Cc1cc(F)cnc1OCC(C)(C)NC4=O [Compound 40, (4R)-8-fluoro-4,13,13-trimethyl-3,4,13,14-tetrahydro-6H-18,1-(metheno)[1,4]oxazino[3,4-i]-pyrazolo[4,3-f]pyrido[3,2-l] [1,4,8,10]oxatriazacyclotridecin-15(12H)-one] | 9.70 | > 9.70 |
| 8.57 | C[C@@H]1COc2cn3ncc4c3nc2N1Cc1cc(F)cnc1OCC1(CCC1)NC4=O [Compound 45, (4′R)-8′-fluoro-4′-methyl-3′H,4′H,6′H,12′H,14′H,15′H-spiro[cyclobutane-1,13′-[2,11]-dioxa[5,10,14,17,18,19]hexaaza-[18,1](metheno)[1,4]oxazino[3,4-i]pyrazolo[4,3-f]pyrido[3,2-l] [1,4,8,10]oxatriazacyclotridecin]-15′-one] | 8.30 | > 9.70 |
| 7.17 | C[C@@H]1COc2cn3ncc4c3nc2N1Cc1cc(F)cnc1OCC1(CCC1)CNC4=O [Compound 47, (16′R)-12′-fluoro-16′-methyl-4′H,5′H,6′H,8′H,14′H,16′H,17′H-spiro[cyclobutane-1,7′-[9,18]-dioxa[1,2,5,10,15,20]hexaaza-[1,19](metheno)[1,4]oxazino-[4,3-e]pyrazolo[3,4-h]pyrido-[2,3-b][1,5,7,11]oxatriazacyclo-tetradecin]-4′-one] | 7.62 | > 9.70 |
| 6.23 | C[C@@H]1COc2cn3ncc4c3nc2N1Cc1cc(F)cnc1OCC1(CC(F)(F)C1)NC4=O [Compound 50, (4′R)-3,3,8′-trifIuoro-4′-methyl-3′H,4′H,6′H,12′H,14′H,15′H-spiro[cyclobutane-1,13′-[2,11]-dioxa[5,10,14,17,18,19]hexaaza-[18,1](metheno)[1,4]oxazino[3,4-i][4,3-f]pyrido[3,2-l][1,4,8,10]-oxatriazacyclotridecin]-15′-one] | 6.39 | > 9.70 |
| 6.63 | C[C@@H]1COc2cn3ncc4c3nc2N1Cc1cc(F)cnc1OC[C@H](C)NC4=O [Compound 51, (4R,13S)-8-fluoro-4,13-dimethyl-3,4,13,14-tetrahydro-6H-18,1-(metheno)[1,4]oxazino[3,4-i]-pyrazolo[4,3-f]pyrido[3,2-l] [1,4,8,10]oxatriazacyclotridecin-15(12H)-one] | 7.00 | > 9.70 |
| 6.56 | C[C@@H]1COc2cn3ncc4c3nc2N1Cc1cc(F)cnc1OCC1(CCCC1)NC4=O [Compound 52, (4'R)-8'-fluoro-4'-methyl-3'H,4'H,6'H,12'H,14'H,15'H-spiro[cyclopentane-1,13'-[2,11]-dioxa[5,10,14,17,18,19]hexaaza-[18,1](metheno)[1,4]oxazino[3,4-i]pyrazolo[4,3-f]pyrido[3,2-l] [1,4,8,10]oxatriazacyclotridecin]-15’-one] | 6.45 | > 9.70 |
| 6.18 | C[C@@H]1COc2cn3ncc4c3nc2N1Cc1cc(F)cnc1OC[C@@H](O)CNC4=O [Compound 54, (7S,16R)-12-fluoro-7-hydroxy-16-methyl-5,6,7,8,16,17-hexa-hydro-4H,14H-1,19-(metheno)-[1,4]oxazino[4,3-e]pyrazolo-[3,4-h]pyrido[2,3-b][1,5,7,11]-oxatriazacyclotetradecin-4-one] | 6.17 | > 9.70 |
| 7.83 | C[C@@H]1COc2cn3ncc4c3nc2N1Cc1cc(F)cnc1OCC(C)(C)CNC4=O [Compound 55, (16R)-12-fluoro-7,7,16-trimethyl-5,6.7,8,16,17-hexahydro-4H,14H-1,19-(metheno)[1,4]oxazino[4,3-e]pyrazolo[3,4-h]pyrido[2,3-b] [1,5,7,11]oxatriazacyclotetradecin-4-one] | 8.38 | > 9.70 |

More lines, now with the values behind:

| Structure (SMILES) | pIC50 [3] | pIC50 [1] | pIC50 [2] |
| --- | --- | --- | --- |
| C[C@@H]1COc2cn3ncc4c3nc2N1Cc1cc(F)cnc1O[C@@H](C)CCNC4=O [Compound 36, (8S,16R)-12-fluoro-8,16-dimethyl-5,6,7,8,16,17-hexahydro-4H,14H-1,19-(metheno)[1,4]oxazino[4,3-e]pyrazolo[3,4-h]pyrido[2,3-b] [1,5,7,11]oxatriazacyclotetra-decin-4-one] | 7.22 | 7.60 | > 9.70 |
| C[C@@H]1COc2ncc(F)cc2CN2c3nc4c(cnn4cc3OC[C@H]2CC#N)C(=O)N1 [Compound 41, [(4R,13R)-8-fluoro-13-methyl-15-oxo-3,4,12,13,14,15-hexahydro-6H-18,1-(metheno)[1,4]oxazino[3,4-i]pyrazolo[4,3-f]pyrido[3,2-][1,4,8,10]oxatriazacyclotridecin-4-yl]acetonitrile] | 5.93 | 6.21 | 9.30 |
| C=C1COc2cn3ncc4c3nc2N1Cc1cc(F)cnc1OC[C@@H](C)NC4=O [Compound 42, (13R)-8-fluoro-13-methyl-4-methylidene-3,4,13,14-tetrahydro-6H-18,1-(metheno)[1,4]oxazino[3,4-i]pyrazolo[4,3-f]pyrido[3,2-1][1,4,8,10]oxatriazacyclotridecin-15(12H)-one] | 5.92 | 5.91 | > 9.70 |
| C[C@@H]1COc2ncc(F)cc2CN2c3nc4c(cnn4cc3OC[C@H]2CN=[N+]=[N-])C(=O)N1 [Compound 43, (4R,13R)-4-(azidomethyl)-8-fluoro-13-methyl-3,4,13,14-tetrahydro-6H-18,1-(metheno)-[1,4]oxazino[3,4-i]pyrazolo[4,3-f]pyrido[3,2-l][1,4,8,10]oxatriaza-cyclotridecin-15(12H)-one] | 7.07 | 7.51 | 9.70 |
| COC[C@@H]1COc2cn3ncc4c3nc2N1Cc1cc(F)cnc1OC[C@@H](C)NC4=O [Compound 44, (4R,13R)-8-fluoro-4-(methoxymethyl)-13-methyl-3,4,13,14-tetrahydro-6H-18,1-(metheno)[1,4]oxazino[3,4-i]pyrazolo[4,3-f]pyrido[3,2-1][1,4,8,10]oxatriazacyclotridecin-15(12H)-one] | 6.26 | 6.77 | > 9.70 |
| C[C@@H]1COc2ncc(F)cc2CN2c3nc4c(cnn4cc3OC[C@H]2c2ccccc2)C(=O)N1 [Compound 46, (4R,13R)-8-fluoro-13-methyl-4-phenyl-3,4,13,14-tetrahydro-6H-18,1-(metheno)[1,4]oxazino[3,4-i]pyrazolo[4,3-f]pyrido[3,2-1][1,4,8,10]oxatriazacyclotridecin-15(12H)-one] | 5.98 | 9.70 | > 9.70 |
| C[C@@H]1COc2cn3ncc4c3nc2N1Cc1cc(F)cnc1OCC[C@H](C)NC4=O [Compound 48, (6S,16R)-12-fluoro-6,16-dimethyl-5,6,7,8,16,17-hexahydro-4H,14H-1,19-(metheno)[1,4]oxazino[4,3-e]pyrazolo[3,4-h]pyrido[2,3-b] [1,5,7,11]oxatriazacyclotetra-decin-4-one] | 7.66 | 7.89 | > 9.70 |
| C[C@@H]1COc2cn3ncc4c3nc2N1Cc1cc(F)cnc1O[C@H]1CCC[C@H]1NC4=O [Compound 49, (8R,15aS,18aR)-12-fluoro-8-methyl-7,8,15a,16,17,18,18a, 19-octahydro-10H,20H-3,5-(metheno)cyclopenta[b][1,4]-oxazino[3,4-i]pyrazolo[4,3-f]-pyrido[3,2-l][1,4,8,10]-oxatriazacyclotridecin-20-one] | 7.26 | 8.02 | > 9.70 |
| C[C@@H]1COc2cn3ncc4c3nc2N1Cc1cc(F)cnc1O[C@H]1CCC[C@@H]1NC4=O [Compound 53, (8R,15aS,18aS)-12-fluoro-8-methyl-7,8,15a,16,17,18,18a, 19-octahydro-10H,20H-3,5-(metheno)cyclopenta[b][1,4]-oxazino[3,4-i]pyrazolo[4,3-f]-pyrido[3,2-l][1,4,8,10]oxatriaza-cyclotridecin-20-one] | 6.95 | 6.74 | > 9.70 |
| C[C@H]1CNC(=O)c2cnn3cc4c(nc23)N(Cc2cc(F)cnc2O1)C1(CCC1)CO4 [Compound 56, (12′S)-8′-fluoro-12′-methyl-3′H,6′H,12′H,13′H,14′H,15′H-spiro[cyclobutane-1,4′-[2,11]-dioxa[5,10,14,17,18,19]-hexaaza[18,1](metheno)[1,4]-oxazino[3,4-i]pyrazolo[4,3-f]-pyrido[3,2-l][1,4,8,10]oxatriaza-cyclotridecin]-15′-one] | 6.04 | 5.52 | > 9.70 |
